Test results taken from ChEMBL document CHEMBL4602655, “Synthesis and biological evaluation of Isosteviol derivatives as FXa inhibitors” (Bioorg Med Chem Lett, 2020).

Legend:
Coagulation factor X [1] = target: T1, Coagulation factor X (Homo sapiens, UniProt P00742); assay: Inhibition of factor 10a (unknown origin)
Coagulation factor X [2] = target: T1, Coagulation factor X; assay: Binding affinity to factor 10a (unknown origin) assessed as association rate constant by SPR assay
Coagulation factor X [3] = target: T1, Coagulation factor X; assay: Binding affinity to factor 10a (unknown origin) assessed as dissociation rate constant by SPR assay
Coagulation factor X [4] = target: T1, Coagulation factor X; assay: Binding affinity to factor 10a (unknown origin) by SPR assay
Plasma = assay: Anticoagulant activity in plasma assessed as concentration required to double the activated partial thromboplastin time; format: ADME, cell-free

T1 sequence (P00742 41-179 limits assumed): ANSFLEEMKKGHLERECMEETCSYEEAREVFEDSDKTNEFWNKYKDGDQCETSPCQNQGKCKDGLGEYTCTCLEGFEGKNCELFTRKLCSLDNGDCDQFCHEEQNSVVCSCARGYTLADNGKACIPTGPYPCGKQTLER
T1 sequence (P00742 235-488 limits assumed): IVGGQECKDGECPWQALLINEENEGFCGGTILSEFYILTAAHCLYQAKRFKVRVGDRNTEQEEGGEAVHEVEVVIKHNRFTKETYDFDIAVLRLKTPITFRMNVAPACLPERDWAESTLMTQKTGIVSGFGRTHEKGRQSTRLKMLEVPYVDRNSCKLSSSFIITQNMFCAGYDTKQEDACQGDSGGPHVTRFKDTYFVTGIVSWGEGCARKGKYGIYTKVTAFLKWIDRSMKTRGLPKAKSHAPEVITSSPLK

| Compound | IC50 (Coagulation factor X [1]) [µM] | other results |
| --- | --- | --- |
| CCOC(=O)[C@]1(C)CCC[C@@]2(C)[C@@H]3CC[C@@]4(C)C[C@]3(CC[C@@H]21)C[C@H]4OCc1cn(Cc2ccccc2)nn1 | 29.4 |  |
| CCOC(=O)[C@]1(C)CCC[C@@]2(C)[C@@H]3CC[C@@]4(C)C[C@]3(CC[C@@H]21)C/C4=N\NC(=S)Nc1ccccc1 | 13.4 |  |
| CCOC(=O)[C@]1(C)CCC[C@@]2(C)[C@@H]3CC[C@@]4(C)C[C@]3(CC[C@@H]21)C[C@H]4OCc1cn(-c2ccccc2)nn1 | 10.4 |  |
| CCOC(=O)[C@]1(C)CCC[C@@]2(C)[C@@H]3CC[C@@]4(C)C[C@]3(CC[C@@H]21)C/C4=N\NC(=S)Nc1ccc(C)cc1 | 57.7 |  |
| CCOC(=O)[C@]1(C)CCC[C@@]2(C)[C@@H]3CC[C@@]4(C)C[C@]3(CC[C@@H]21)C/C4=N\NC(=S)Nc1ccc(F)cc1 | 27.5 |  |
| CCOC(=O)[C@]1(C)CCC[C@@]2(C)[C@@H]3CC[C@@]4(C)C[C@]3(CC[C@@H]21)C[C@H]4OCc1cn(-c2ccc(Cl)cc2)nn1 | 27.3 |  |
| CCOC(=O)[C@]1(C)CCC[C@@]2(C)[C@@H]3CC[C@@]4(C)C[C@]3(CC[C@@H]21)C/C4=N\NC(=S)Nc1ccc(C(C)C)cc1 | 54.9 |  |
| CCOC(=O)[C@]1(C)CCC[C@@]2(C)[C@@H]3CC[C@@]4(C)C[C@]3(CC[C@@H]21)C/C4=N\NC(=S)Nc1ccc(Br)cc1 | 8.77 |  |
| CCOC(=O)[C@]1(C)CCC[C@@]2(C)[C@@H]3CC[C@@]4(C)C[C@]3(CC[C@@H]21)C[C@H]4OCc1cn(-c2ccc3c(c2)OCO3)nn1 | 7.57 |  |
| CCOC(=O)[C@]1(C)CCC[C@@]2(C)[C@@H]3CC[C@@]4(C)C[C@]3(CC[C@@H]21)C[C@H]4OCc1cn(-c2cccc(C)c2)nn1 | 41.7 |  |
| CCOC(=O)[C@]1(C)CCC[C@@]2(C)[C@@H]3CC[C@@]4(C)C[C@]3(CC[C@@H]21)C/C4=N\NC(=S)Nc1ccc(OC)cc1 | 6.65 |  |
| CCOC(=O)[C@]1(C)CCC[C@@]2(C)[C@@H]3CC[C@@]4(C)C[C@]3(CC[C@@H]21)C/C4=N\NC(=S)Nc1ccc(C(F)(F)F)cc1 | 8.66 |  |
| CCOC(=O)[C@]1(C)CCC[C@@]2(C)[C@@H]3CC[C@@]4(C)C[C@]3(CC[C@@H]21)C[C@H]4OCc1cn(-c2cccc(Cl)c2)nn1 | 17.7 |  |
| CCOC(=O)[C@]1(C)CCC[C@@]2(C)[C@@H]3CC[C@@]4(C)C[C@]3(CC[C@@H]21)C[C@H]4OCc1cn(-c2ccc(OC)cc2)nn1 | 19.3 |  |
| C#CCO[C@@H]1C[C@]23CC[C@H]4[C@@](C)(CCC[C@@]4(C)C(=O)OCC)[C@@H]2CC[C@@]1(C)C3 | 32.4 |  |
| CCOC(=O)[C@]1(C)CCC[C@@]2(C)[C@@H]3CC[C@@]4(C)C[C@]3(CC[C@@H]21)C[C@H]4OCc1cn(-c2ccc(C(C)C)cc2)nn1 | 20.3 |  |
| CCOC(=O)[C@]1(C)CCC[C@@]2(C)[C@@H]3CC[C@@]4(C)C[C@]3(CC[C@@H]21)C/C4=N\NC(=S)Nc1ccc(C#N)cc1 | 13.6 |  |
| CCOC(=O)[C@]1(C)CCC[C@@]2(C)[C@@H]3CC[C@@]4(C)C[C@]3(CC[C@@H]21)C/C4=N\NC(=S)Nc1cccc(OC)c1 | 18.4 |  |
| CCOC(=O)[C@]1(C)CCC[C@@]2(C)[C@@H]3CC[C@@]4(C)C[C@]3(CC[C@@H]21)C/C4=N\NC(=S)Nc1ccc(C(C)(C)C)cc1 | 9.03 |  |
| CCOC(=O)[C@]1(C)CCC[C@@]2(C)[C@@H]3CC[C@@]4(C)C[C@]3(CC[C@@H]21)C[C@H]4OCc1cn(-c2ccc(F)cc2)nn1 | 8.74 |  |
| CCOC(=O)[C@]1(C)CCC[C@@]2(C)[C@@H]3CC[C@@]4(C)C[C@]3(CC[C@@H]21)C/C4=N\NC(=S)Nc1ccc([N+](=O)[O-])cc1 | 8.46 |  |
| CCOC(=O)[C@]1(C)CCC[C@@]2(C)[C@@H]3CC[C@@]4(C)C[C@]3(CC[C@@H]21)C/C4=N\NC(=S)Nc1ccc(OC)cc1OC | 33.6 |  |
| CCOC(=O)[C@]1(C)CCC[C@@]2(C)[C@@H]3CC[C@@]4(C)C[C@]3(CC[C@@H]21)C[C@H]4OCc1cn(-c2ccccc2C)nn1 | 34.5 |  |
| CCOC(=O)[C@]1(C)CCC[C@@]2(C)[C@@H]3CC[C@@]4(C)C[C@]3(CC[C@@H]21)C/C4=N\NC(=S)Nc1cccc(Cl)c1Cl | 7.73 |  |
| CCOC(=O)[C@]1(C)CCC[C@@]2(C)[C@@H]3CC[C@@]4(C)C[C@]3(CC[C@@H]21)C[C@H]4OCc1cn(-c2cc(C)cc(C)c2)nn1 | 6.33 |  |
| CCOC(=O)[C@]1(C)CCC[C@@]2(C)[C@@H]3CC[C@@]4(C)C[C@]3(CC[C@@H]21)C/C4=N\NC(=S)Nc1cccc(N(C)C)c1 | 29.6 |  |
| CCOC(=O)[C@]1(C)CCC[C@@]2(C)[C@@H]3CC[C@@]4(C)C[C@]3(CC[C@@H]21)C[C@H]4O | 12.7 |  |

These reach a lower IC50 (Coagulation factor X [1]). Values come first.

| IC50 (Coagulation factor X [1]) [µM] | Compound | other results |
| --- | --- | --- |
| 5.53 | CCOC(=O)[C@]1(C)CCC[C@@]2(C)[C@@H]3CC[C@@]4(C)C[C@]3(CC[C@@H]21)C[C@H]4OCc1cn(-c2ccc(C)cc2)nn1 |  |
| 4.87 | CCOC(=O)[C@]1(C)CCC[C@@]2(C)[C@@H]3CC[C@@]4(C)C[C@]3(CC[C@@H]21)C[C@H]4OCc1cn(-c2cccc3ccccc23)nn1 |  |
| 4.15 | CCOC(=O)[C@]1(C)CCC[C@@]2(C)[C@@H]3CC[C@@]4(C)C[C@]3(CC[C@@H]21)C/C4=N\NC(=S)Nc1ccccc1C |  |
| 3.76 | CCOC(=O)[C@]1(C)CCC[C@@]2(C)[C@@H]3CC[C@@]4(C)C[C@]3(CC[C@@H]21)C/C4=N\NC(=S)Nc1cccc(C)c1 |  |
| 3.34 | CCOC(=O)[C@]1(C)CCC[C@@]2(C)[C@@H]3CC[C@@]4(C)C[C@]3(CC[C@@H]21)C[C@H]4OCc1cn(-c2ccc(Br)cc2)nn1 |  |
| 2.82 | CCOC(=O)[C@]1(C)CCC[C@@]2(C)[C@@H]3CC[C@@]4(C)C[C@]3(CC[C@@H]21)C/C4=N\N |  |
| 0.955 | CCOC(=O)[C@]1(C)CCC[C@@]2(C)[C@@H]3CC[C@@]4(C)C[C@]3(CC[C@@H]21)C/C4=N\NC(=S)Nc1cccc2ccccc12 |  |
| 0.786 | CCOC(=O)[C@]1(C)CCC[C@@]2(C)[C@@H]3CC[C@@]4(C)C[C@]3(CC[C@@H]21)CC4=O |  |
| 0.642 | C[C@@]12CC[C@@H]3[C@@](CC[C@H]4[C@@]3(C)CCC[C@@]4(C)C(=O)O)(CC1=O)C2 [ISOSTEVIOL] |  |
| 0.209 | CCOC(=O)[C@]1(C)CCC[C@@]2(C)[C@@H]3CC[C@@]4(C)C[C@]3(CC[C@@H]21)C/C4=N\NC(=S)Nc1ccccc1Cl | Ka (Coagulation factor X [2]): 1.88 ×10⁴ /M/s; Kd (Coagulation factor X [3]): 1.87 ×10⁻¹ /s; Kd (Coagulation factor X [4]): 9.98 µM |
| 0.196 | CCOC(=O)[C@]1(C)CCC[C@@]2(C)[C@@H]3CC[C@@]4(C)C[C@]3(CC[C@@H]21)C/C4=N\NC(=S)Nc1cccc(Cl)c1 | Ka (Coagulation factor X [2]): 1.84 ×10⁴ /M/s; Kd (Coagulation factor X [3]): 1.56 ×10⁻¹ /s; Kd (Coagulation factor X [4]): 8.44 µM; 2aPTT (Plasma): 17.12 µM |
| 0.153 | CCOC(=O)[C@]1(C)CCC[C@@]2(C)[C@@H]3CC[C@@]4(C)C[C@]3(CC[C@@H]21)C/C4=N\NC(=S)Nc1ccc(Cl)cc1 | Ka (Coagulation factor X [2]): 1.93 ×10⁴ /M/s; Kd (Coagulation factor X [3]): 1.45 ×10⁻¹ /s; Kd (Coagulation factor X [4]): 7.52 µM; 2aPTT (Plasma): 9.31 µM |
